Read-outs that look alike come from different tables or passages of the source.
Experiments:
[1] = test system: 80 known receptors, ion channels, and enzyme targets; assay: Screen of 80 known receptors, ion channels, and enzyme targets; conditions: concentrations up to 10 μM; internal data
[2] = human, in vivo, po, 100 mg
[3] = test system: human P‐gp, BCRP, BSEP, MATE1, MATE2‐K, OAT1, OAT3, OATP1B1, OATP1B3, OCT1, OCT2; conditions: tested transporter panel (ulotaront: except OCT2); cited from earlier work
[4] = test system: OAT3; conditions: at 50 μM; cited from earlier work
[5] = test system: MATE1; conditions: at 50 μM; cited from earlier work
[6] = biological target: T1, OCT2 (Homo sapiens, UniProt O15244); parameters: […]; from tissue; host or cells: kidney of adult human subjects with schizophrenia (in vivo clinical study); conditions: cited from earlier work
T1 sequence (O15244 1-555): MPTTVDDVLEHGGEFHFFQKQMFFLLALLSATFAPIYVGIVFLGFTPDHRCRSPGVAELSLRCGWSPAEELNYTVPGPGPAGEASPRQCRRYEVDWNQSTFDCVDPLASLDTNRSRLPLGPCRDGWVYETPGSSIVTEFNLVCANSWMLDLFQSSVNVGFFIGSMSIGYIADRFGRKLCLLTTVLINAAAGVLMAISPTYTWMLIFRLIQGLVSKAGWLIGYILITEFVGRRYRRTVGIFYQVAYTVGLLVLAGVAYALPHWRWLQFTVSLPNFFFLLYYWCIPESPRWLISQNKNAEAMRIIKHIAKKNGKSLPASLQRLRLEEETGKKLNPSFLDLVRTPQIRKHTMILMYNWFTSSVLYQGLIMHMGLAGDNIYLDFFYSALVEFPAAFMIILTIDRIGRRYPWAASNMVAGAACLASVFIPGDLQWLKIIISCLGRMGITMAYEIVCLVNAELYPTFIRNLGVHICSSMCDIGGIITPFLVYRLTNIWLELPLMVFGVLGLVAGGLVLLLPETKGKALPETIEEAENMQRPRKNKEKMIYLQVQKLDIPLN

[7] = plasma; placebo + metformin‐HCl 850 mg single dose
[8] = clinical; conditions: human, in vivo
[9] = biological target: T1, OCT2; assay: clinical; conditions: plasma, oral

## O=C(O)[C@@H]1OCCc2ccsc21 [SEP‐383103]
[1]
  binding or functional activity in screen of 80 targets: did not identify binding or functional activity
[2]
  AUCinf, Geometric mean (CV%): 2510 (30.1) ng * h/mL
  AUCinf, Mean (SD): 2620 (797) ng * h/mL
  AUCinf, Median (min, max): 2490 (1550, 4810) ng * h/mL
  AUClast, Geometric mean (CV%): 2520 (29.7) ng * h/mL
  AUClast, Mean (SD): 2630 (780) ng * h/mL
  AUClast, Median (min, max): 2490 (1540, 4760) ng * h/mL
  C max, Geometric mean (CV%): 150 (22.6) ng/mL
  C max, Mean (SD): 154 (34.9) ng/mL
  C max, Median (min, max): 156 (99.7, 255) ng/mL
  t 1/2, Mean (SD): 9.17 (1.78) h
  t max, Median (min, max): 6.00 (3.00, 8.00) h
[3]
  inhibitor of human efflux and uptake transporters: not an inhibitor
[4]
  inhibition of OAT3: ~ 35%
[5]
  inhibition of MATE1: ~ 20%

## C[C@@H]1CCO[C@H]2Cn3cc(C(=O)NCc4ccc(F)cc4F)c(=O)c(O)c3C(=O)N12 [dolutegravir]
[6]; co‐administration of 50 mg dolutegravir bid
  increase of metformin AUC: 145%
[6]; co‐administration of 50 mg dolutegravir qd
  increase of metformin AUC: 79%
[6]; dolutegravir oral 50 mg qd or bid
  unbound C max/IC50 ratio (OCT2): 2–3.6

## CN(C)C(=N)N=C(N)N [metformin]
[7]
  t max, Median (min, max): 4.0 (2.0, 5.0) h
[8]
  Cmax: 1130 ng/mL
  Tmax: 4.5 h
  Vd/F: 1280 L
[8]; po, 850 mg
  CL renal: 287 mL/min
[9]
  AUC(0-inf): 12500 ng·h/mL
